In ChEMBL document CHEMBL1773000, “Synthesis and biological activity of 22-deoxo-23-oxa analogues of saponin OSW-1” (J Med Chem, 2011):
The source made the active and inactive calls. The rule behind the calls is not given here.

Tests used:
CCRF-CEM [1] = test: Cytotoxicity against human CEM cells assessed as viable cells after 72 hrs by calcein AM assay; format: functional, cell-based
MCF7 = test: Cytotoxicity against human MCF7 cells assessed as viable cells after 72 hrs by calcein AM assay; format: functional, cell-based; conditions: MCF7, 72 h
G-361 = test: Cytotoxicity against human G361 cells assessed as viable cells after 72 hrs by calcein AM assay; format: functional, cell-based; conditions: G-361, 72 h
HeLa = test: Cytotoxicity against human HeLa cells assessed as viable cells after 72 hrs by calcein AM assay; format: functional, cell-based
A549 = test: Cytotoxicity against human A549 cells assessed as viable cells after 72 hrs by calcein AM assay; format: functional, cell-based; conditions: A549, 72 h
BJ = test: Cytotoxicity against human BJ cells assessed as viable cells after 72 hrs by calcein AM assay; format: cell-based
CCRF-CEM [2] = test: Induction of apoptosis in human CEM cells assessed as cleavage of PARP at 5 to 10 uM after 24 hrs by Western blot analysis relative to untreated control; format: functional, cell-based
CCRF-CEM [3] = test: Induction of apoptosis in human CEM cells assessed as increase in Bcl-2 protein level after 24 hrs by Western blot analysis relative to untreated control; format: functional, cell-based
CCRF-CEM [4] = test: Induction of apoptosis in human CEM cells assessed as effect on […] protein expression at 5 to 10 uM after 24 hrs by Western blot analysis relative to untreated control; format: functional, cell-based
CCRF-CEM [5] = test: Induction of apoptosis in human CEM cells assessed as effect on retinoblastoma protein expression at 5 to 10 uM after 24 hrs by Western blot analysis relative to untreated control; format: functional, cell-based
CCRF-CEM [6] = test: Induction of apoptosis in human CEM cells assessed as accumulation of caspase-3 after 24 hrs by Western blot analysis relative to untreated control; format: functional, cell-based
CCRF-CEM [7] = test: Induction of apoptosis in human CEM cells assessed as increase in caspase-7 activity using Ac-DEVD-AMC as a substrate at 7.5 uM after 24 hrs by fluorescence microplate reader assay relative to untreated control; format: functional
CCRF-CEM [8] = test: Induction of apoptosis in human CEM cells assessed as increase in caspase-7 activity using Ac-DEVD-AMC as a substrate at 10 uM after 24 hrs by fluorescence microplate reader assay relative to untreated control; format: functional
HOS = test: Cytotoxicity against human HOS cells assessed as viable cells after 72 hrs by calcein AM assay; format: functional, cell-based
[9] = Cytotoxicity against human T98 cells assessed as viable cells after 72 hrs by calcein AM assay; format: functional, cell-based; conditions: T98, 72 h
HCT-116 = test: Cytotoxicity against human HCT116 assessed as viable cells after 72 hrs by calcein AM assay; format: functional, cell-based; conditions: HCT-116, 72 h
CCRF-CEM [10] = test: Induction of cell cycle arrest in human CEM cells assessed as increase in accumulation of cells at S-phase after 24 hrs by flow cytometric analysis relative to untreated control; format: functional, cell-based
CCRF-CEM [11] = test: Induction of cell cycle arrest in human CEM cells assessed as increase in accumulation of cells at G2/M-phase after 24 hrs by flow cytometric analysis relative to untreated control; format: functional, cell-based
CCRF-CEM [12] = test: Induction of cell cycle arrest in human CEM cells assessed as reduction in accumulation of cells at G0/G1-phase after 24 hrs by flow cytometric analysis relative to untreated control; format: functional, cell-based
CCRF-CEM [13] = test: Induction of apoptosis in human CEM cells assessed as increase in amount of DNA at subG1-phase after 24 hrs by flow cytometric analysis relative to untreated control; format: functional, cell-based
CCRF-CEM [14] = test: Induction of apoptosis in human CEM cells assessed as increase in caspase-3 activity using Ac-DEVD-AMC as a substrate at 7.5 uM after 24 hrs by fluorescence microplate reader assay relative to untreated control; format: functional
CCRF-CEM [15] = test: Induction of apoptosis in human CEM cells assessed as increase in caspase-3 activity using Ac-DEVD-AMC as a substrate at 10 uM after 24 hrs by fluorescence microplate reader assay relative to untreated control; format: functional
CCRF-CEM [16] = test: Induction of apoptosis in human CEM cells assessed as increase in caspase-3 activity using Ac-DEVD-AMC as a substrate at 0.25 uM after 24 hrs by fluorescence microplate reader assay relative to untreated control; format: functional
CCRF-CEM [17] = test: Induction of apoptosis in human CEM cells assessed as increase in caspase-3 activity using Ac-DEVD-AMC as a substrate at 0.5 uM after 24 hrs by fluorescence microplate reader assay relative to untreated control; format: functional
CCRF-CEM [18] = test: Induction of apoptosis in human CEM cells assessed as cleavage of PARP at 0.1 to 0.5 uM after 24 hrs by Western blot analysis relative to untreated control; format: functional, cell-based
CCRF-CEM [19] = test: Induction of apoptosis in human CEM cells assessed as effect on […] protein expression at 0.1 to 0.5 uM after 24 hrs by Western blot analysis relative to untreated control; format: functional, cell-based
CCRF-CEM [20] = test: Induction of apoptosis in human CEM cells assessed as effect on retinoblastoma protein expression at 0.1 to 0.5 uM after 24 hrs by Western blot analysis relative to untreated control; format: functional, cell-based
CCRF-CEM [21] = test: Induction of apoptosis in human CEM cells assessed as increase in caspase-7 activity using Ac-DEVD-AMC as a substrate at 0.25 uM after 24 hrs by fluorescence microplate reader assay relative to untreated control; format: functional
CCRF-CEM [22] = test: Induction of apoptosis in human CEM cells assessed as increase in caspase-7 activity using Ac-DEVD-AMC as a substrate at 0.5 uM after 24 hrs by fluorescence microplate reader assay relative to untreated control; format: functional

SMILES | IC50 (CCRF-CEM [1]) [nM] | IC50 (MCF7) [nM] | IC50 (G-361) [nM] | IC50 (HeLa) [nM] | IC50 (A549) [nM] | IC50 (BJ) [nM] | IC50 (HOS) [nM] | IC50 [9] [nM] | IC50 (HCT-116) [nM] | further results
COc1ccc(C(=O)O[C@H]2[C@H](O[C@@H]3[C@@H](OC(C)=O)[C@H](O[C@H]4C[C@H]5[C@@H]6CC=C7C[C@@H](O)CC[C@]7(C)[C@H]6CC[C@]5(C)[C@@]4(O)[C@H](C)COCc4ccccc4)OC[C@@H]3O)OC[C@@H](O)[C@@H]2O)cc1 | 20 | 600 | 750 | 200 | 100 | 300 |  |  |  | 
C/C=C/C(=O)OC[C@@H](C)[C@@]1(O)[C@@H](O[C@@H]2OC[C@H](O)[C@H](O[C@@H]3OC[C@@H](O)[C@H](O)[C@H]3OC(=O)c3ccc(OC)cc3)[C@H]2OC(C)=O)C[C@H]2[C@@H]3CC=C4C[C@@H](O)CC[C@]4(C)[C@H]3CC[C@@]21C | 340 | 840 | 890 | 1940 | 550 | 230 | > 50000 | 940 | > 50000 | Activity (CCRF-CEM [2]): Active; Activity (CCRF-CEM [3]): Dose-dependent effect; Activity (CCRF-CEM [4]): inactive; Activity (CCRF-CEM [5]): inactive; Activity (CCRF-CEM [6]): Dose-dependent effect; fold change (FC) (CCRF-CEM [7]): 3; fold change (FC) (CCRF-CEM [8]): 3; Activity (CCRF-CEM [10]): Dose-dependent effect; Activity (CCRF-CEM [11]): Dose-dependent effect; Activity (CCRF-CEM [12]): Dose-dependent effect; Activity (CCRF-CEM [13]): Active; fold change (FC) (CCRF-CEM [14]): 3; fold change (FC) (CCRF-CEM [15]): 3
CC(C)CCC(=O)[C@@H](C)[C@@]1(O)[C@@H](O)C[C@H]2[C@@H]3CC=C4C[C@@H](O)CC[C@]4(C)[C@H]3CC[C@@]21C | > 50000 | > 50000 | > 50000 | > 50000 | > 50000 | > 50000 | > 50000 | > 50000 | > 50000 | 
CCCCCCC(=O)OC[C@@H](C)[C@@]1(O)[C@@H](O[C@@H]2OC[C@H](O)[C@H](O[C@@H]3OC[C@@H](O)[C@H](O)[C@H]3OC(=O)c3ccc(OC)cc3)[C@H]2OC(C)=O)C[C@H]2[C@@H]3CC=C4C[C@@H](O)CC[C@]4(C)[C@H]3CC[C@@]21C | 10 | 400 | 1280 | 30 | 20 | 600 |  |  |  | 
CCCCCCCCC(=O)OC[C@@H](C)[C@@]1(O)[C@@H](O[C@@H]2OC[C@H](O)[C@H](O[C@@H]3OC[C@@H](O)[C@H](O)[C@H]3OC(=O)c3ccc(OC)cc3)[C@H]2OC(C)=O)C[C@H]2[C@@H]3CC=C4C[C@@H](O)CC[C@]4(C)[C@H]3CC[C@@]21C | 7.2 | 26 | 15 | 47 | 590 | 7 | 2800 | 11 | 4900 | 
COc1ccc(C(=O)O[C@H]2[C@H](O[C@@H]3[C@@H](OC(C)=O)[C@H](O[C@H]4C[C@H]5[C@@H]6CC=C7C[C@@H](O)CC[C@]7(C)[C@H]6CC[C@]5(C)[C@@]4(O)[C@H](C)C(=O)CCC(C)C)OC[C@@H]3O)OC[C@@H](O)[C@@H]2O)cc1 | 0.3 | 2.4 | 1000 | 3.4 | 27 | 0.2 | 8200 | 70 | 8400 | 
C=CCCCCCCCCC(=O)OC[C@@H](C)[C@@]1(O)[C@@H](O[C@@H]2OC[C@H](O)[C@H](O[C@@H]3OC[C@@H](O)[C@H](O)[C@H]3OC(=O)c3ccc(OC)cc3)[C@H]2OC(C)=O)C[C@H]2[C@@H]3CC=C4C[C@@H](O)CC[C@]4(C)[C@H]3CC[C@@]21C | 6.1 | 29 | 6.7 | 103 | 600 | 3 | 1940 | 7 | 2600 | fold change (FC) (CCRF-CEM [16]): 2.5; fold change (FC) (CCRF-CEM [17]): 2.5; Activity (CCRF-CEM [18]): Active; Activity (CCRF-CEM [19]): inactive; Activity (CCRF-CEM [20]): inactive; Activity (CCRF-CEM [6]): Dose-dependent effect; fold change (FC) (CCRF-CEM [21]): 2.5; fold change (FC) (CCRF-CEM [22]): 2.5; Activity (CCRF-CEM [10]): Dose-dependent effect; Activity (CCRF-CEM [11]): Dose-dependent effect; Activity (CCRF-CEM [12]): Dose-dependent effect
